# According to PubChem BioAssay (NCI):
#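 GI50 = concentration required for 50% inhibition of growth. At the TGI there is no net growth.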
# Columns and labels:
# Assay in all cases: inhibition of tumour cell growth, NCI panel, 384-well format
# MDA-MB-231 breast = system: MDA-MB-231 breast
# 786-0 renal = system: 786-0 renal
# SW-620 colon = system: SW-620 colon
# SNB-75 CNS = system: SNB-75 CNS
# CCRF-CEM leukemia = system: CCRF-CEM leukemia
# T-47D breast = system: T-47D breast
# IGROV1 ovarian = system: IGROV1 ovarian
# NCI/ADR-RES ovarian = system: NCI/ADR-RES ovarian
# SK-MEL-2 melanoma = system: SK-MEL-2 melanoma
# OVCAR-8 ovarian = system: OVCAR-8 ovarian
# SK-MEL-5 melanoma = system: SK-MEL-5 melanoma
# EKVX NSCLC = system: EKVX NSCLC
# HOP-92 NSCLC = system: HOP-92 NSCLC
# SK-OV-3 ovarian = system: SK-OV-3 ovarian
# HL-60(TB) leukemia = system: HL-60(TB) leukemia
# OVCAR-5 ovarian = system: OVCAR-5 ovarian
# HCT-15 colon = system: HCT-15 colon
# CAKI-1 renal = system: CAKI-1 renal
# M14 melanoma = system: M14 melanoma
# NCI-H226 lung = system: NCI-H226 lung
# HOP-62 NSCLC = system: HOP-62 NSCLC
# HCC-2998 colon = system: HCC-2998 colon
# HCT-116 colon = system: HCT-116 colon
# A498 renal = system: A498 renal
# NCI-H23 lung = system: NCI-H23 lung
# UO-31 renal = system: UO-31 renal
# K-562 leukemia = system: K-562 leukemia
# SF-268 CNS = system: SF-268 CNS
# DU-145 prostate = system: DU-145 prostate
# NCI-H522 lung = system: NCI-H522 lung
# NCI-H460 NSCLC = system: NCI-H460 NSCLC
# MCF7 breast = system: MCF7 breast
# SNB-19 CNS = system: SNB-19 CNS
# A549 NSCLC = system: A549 NSCLC
# SF-295 CNS = system: SF-295 CNS
# MOLT-4 leukemia = system: MOLT-4 leukemia
# BT-549 breast = system: BT-549 breast
# SF-539 CNS = system: SF-539 CNS
# OVCAR-4 ovarian = system: OVCAR-4 ovarian
# UACC-257 melanoma = system: UACC-257 melanoma
# PC-3 prostate = system: PC-3 prostate
# HT29 colon = system: HT29 colon
# RPMI-8226 leukemia = system: RPMI-8226 leukemia
# NCI-H322M lung = system: NCI-H322M lung
# LOX IMVI melanoma = system: LOX IMVI melanoma
# HS 578T breast = system: HS 578T breast
# UACC-62 melanoma = system: UACC-62 melanoma
smiles,measurement,setting,value
C1=C/COCc2cc(ccc2OCCN2CCCC2)Nc2nccc(n2)-c2cccc(c2)COC/1,GI50,MDA-MB-231 breast,1.19 µM
same,TGI,MDA-MB-231 breast,2.92 µM
same,GI50,786-0 renal,1.26 µM
same,TGI,786-0 renal,2.62 µM
same,GI50,SW-620 colon,1.52 µM
same,TGI,SW-620 colon,3.4 µM
same,GI50,SNB-75 CNS,1.61 µM
same,TGI,SNB-75 CNS,2.98 µM
same,GI50,CCRF-CEM leukemia,0.705 µM
same,TGI,CCRF-CEM leukemia,1.79 µM
same,GI50,T-47D breast,1.27 µM
same,TGI,T-47D breast,2.67 µM
same,GI50,IGROV1 ovarian,0.811 µM
same,TGI,IGROV1 ovarian,2.94 µM
same,GI50,NCI/ADR-RES ovarian,1.91 µM
same,TGI,NCI/ADR-RES ovarian,3.99 µM
same,GI50,SK-MEL-2 melanoma,0.625 µM
same,TGI,SK-MEL-2 melanoma,1.79 µM
same,GI50,OVCAR-8 ovarian,1.29 µM
same,TGI,OVCAR-8 ovarian,2.67 µM
same,GI50,SK-MEL-5 melanoma,1.45 µM
same,TGI,SK-MEL-5 melanoma,2.77 µM
same,GI50,EKVX NSCLC,1.56 µM
same,TGI,EKVX NSCLC,3.37 µM
same,GI50,HOP-92 NSCLC,1.6 µM
same,TGI,HOP-92 NSCLC,3.91 µM
same,GI50,SK-OV-3 ovarian,0.888 µM
same,TGI,SK-OV-3 ovarian,2.35 µM
same,GI50,HL-60(TB) leukemia,0.251 µM
same,TGI,HL-60(TB) leukemia,0.684 µM
same,GI50,OVCAR-5 ovarian,0.778 µM
same,TGI,OVCAR-5 ovarian,2.64 µM
same,GI50,HCT-15 colon,0.802 µM
same,TGI,HCT-15 colon,2.31 µM
same,GI50,CAKI-1 renal,0.428 µM
same,TGI,CAKI-1 renal,1.71 µM
same,GI50,M14 melanoma,1.16 µM
same,TGI,M14 melanoma,2.39 µM
same,GI50,NCI-H226 lung,1.14 µM
same,TGI,NCI-H226 lung,2.6 µM
same,GI50,HOP-62 NSCLC,1.4 µM
same,TGI,HOP-62 NSCLC,3.03 µM
same,GI50,HCC-2998 colon,1.35 µM
same,TGI,HCC-2998 colon,2.72 µM
same,GI50,HCT-116 colon,0.692 µM
same,TGI,HCT-116 colon,2.36 µM
same,GI50,A498 renal,0.829 µM
same,TGI,A498 renal,2.85 µM
same,GI50,NCI-H23 lung,0.945 µM
same,TGI,NCI-H23 lung,2.25 µM
same,GI50,UO-31 renal,1.47 µM
same,TGI,UO-31 renal,3.19 µM
same,GI50,K-562 leukemia,0.789 µM
same,TGI,K-562 leukemia,2.14 µM
same,GI50,SF-268 CNS,0.865 µM
same,TGI,SF-268 CNS,2.1 µM
same,GI50,DU-145 prostate,1.06 µM
same,TGI,DU-145 prostate,3.43 µM
same,GI50,NCI-H522 lung,1.45 µM
same,TGI,NCI-H522 lung,2.78 µM
same,GI50,NCI-H460 NSCLC,0.923 µM
same,TGI,NCI-H460 NSCLC,2.22 µM
same,GI50,MCF7 breast,0.521 µM
same,TGI,MCF7 breast,1.78 µM
same,GI50,SNB-19 CNS,2.33 µM
same,TGI,SNB-19 CNS,6.91 µM
same,GI50,A549 NSCLC,1.46 µM
same,TGI,A549 NSCLC,3.49 µM
same,GI50,SF-295 CNS,1.81 µM
same,TGI,SF-295 CNS,3.31 µM
same,GI50,MOLT-4 leukemia,0.563 µM
same,TGI,MOLT-4 leukemia,1.29 µM
same,GI50,BT-549 breast,1.79 µM
same,TGI,BT-549 breast,3.2 µM
same,GI50,SF-539 CNS,1.7 µM
same,TGI,SF-539 CNS,3.08 µM
same,GI50,OVCAR-4 ovarian,1.76 µM
same,TGI,OVCAR-4 ovarian,3.61 µM
same,GI50,UACC-257 melanoma,0.649 µM
same,TGI,UACC-257 melanoma,1.41 µM
same,GI50,PC-3 prostate,1.27 µM
same,TGI,PC-3 prostate,3.25 µM
same,GI50,HT29 colon,1.34 µM
same,TGI,HT29 colon,2.67 µM
same,GI50,RPMI-8226 leukemia,1.66 µM
same,TGI,RPMI-8226 leukemia,3.03 µM
same,GI50,NCI-H322M lung,1.01 µM
same,TGI,NCI-H322M lung,2.47 µM
same,GI50,LOX IMVI melanoma,0.842 µM
same,TGI,LOX IMVI melanoma,2.08 µM
same,GI50,HS 578T breast,1.36 µM
same,TGI,HS 578T breast,2.67 µM
same,GI50,UACC-62 melanoma,0.685 µM
same,TGI,UACC-62 melanoma,1.92 µM
